# From US9434745B2, “7-oxo-thiazolopyridine carbonic acid derivatives and their use in the treatment, amelioration or prevention of a viral disease” (Savira Pharmaceuticals GmbH, priority 2012, dated 2016)
# pIC50: −log10 of the molar value.
# Biological target: T1, influenza A virus (IAV) PA-Nter fragment (amino acids 1-209) (Influenza A virus, UniProt P31343)
# T1 construct: PA-Nter fragment (amino acids 1-209); made in house
# Experiment: FRET endonuclease activity assay
# Assay type: biochemical
# Settings: not given
row,SMILES,FRET (result in words)
1,CCOC(=O)c1cn(Cc2ccccc2-c2ccccc2)c2sc(SC)nc2c1=O,inactive

# Same assay, conditions: @ 1 μM; read-out: FRET % reduction of v0
row,SMILES,inhibition at 1 µM
1,CCOC(=O)c1cn(C(c2ccccc2)c2ccccc2)c2sc(NS(=O)(=O)c3ccc(OC)cc3)nc2c1=O,25%
2,CCOC(=O)c1cn(Cc2ccccc2-c2ccccc2)c2sc(NS(=O)(=O)c3ccc(Cl)cc3)nc2c1=O,6.2%

# Same assay, conditions: @ 5 μM; read-out: FRET % reduction of v0
row,SMILES,inhibition at 5 µM
1,O=C(O)c1c[nH]c2ncnn2c1=O,26%
2,CC(C)c1cc2n(CCCc3ccccc3)cc(C(=O)O)c(=O)n2n1 [drawing 215],23%

# Same assay, conditions: @ 10 μM; read-out: FRET % reduction of v0
row,SMILES,inhibition at 10 µM
1,O=C(O)c1cn(Cc2ccccc2-c2ccccc2)c2scnc2c1=O,64%
2,COc1ccc(CNc2nc3c(=O)c(C(=O)O)cn(C(c4ccccc4)c4ccccc4)c3s2)cc1,21.5%
3,Nc1cc2n(Cc3ccccc3-c3ccccc3)cc(C(=O)O)c(=O)n2n1,38%

# Same assay, conditions: @ 25 μM; read-out: FRET % reduction of v0
row,SMILES,inhibition at 25 µM
1,Nc1cc2n(S(=O)(=O)Cc3ccccc3)cc(C(=O)O)c(=O)n2n1,50%
2,Nc1cc2n(C(=O)C3(c4ccccc4)CCCC3)cc(C(=O)O)c(=O)n2n1 [drawing 220],20%
3,O=C(O)c1cn(CCc2ccccc2)c2cc(C3CCCC3)nn2c1=O [drawing 219],42%
4,O=C(O)c1cn(CCc2cccc(Cl)c2)c2cc(C3CC3)nn2c1=O [drawing 224],30%

# Same assay, conditions: from initial reaction velocities (v0) of RNA substrate cleavage
row,SMILES,pIC50
1,N#Cc1ccc(S(=O)(=O)Nc2nc3c(=O)c(C(=O)O)cn(Cc4ccccc4-c4ccccc4)c3s2)cc1,5.66
2,CSC1=NC2C(=O)C(C(=O)O)=CN(Cc3ccccc3-c3ccccc3)C2S1 (stereo not drawn),4.92
3,O=C(O)c1cn(Cc2ccccc2-c2ccccc2)c2sc(NC3CCCC3)nc2c1=O,5.26
4,CC(C)Nc1nc2c(=O)c(C(=O)O)cn(Cc3ccccc3-c3ccccc3)c2s1,4.85
5,COc1ccc(CCn2cc(C(=O)O)c(=O)n3nc(C4CC4)cc23)cc1 [drawing 228],4.16
6,O=C(O)c1cn(Cc2ccccc2-c2ccccc2)c2sc(NS(=O)(=O)c3cccc(F)c3)nc2c1=O,5.17
7,O=c1cc[nH]c2nc(NS(=O)(=O)Cc3ccccc3)nn12,4.47
8,O=C(O)c1c[nH]c2nc(NCc3ccccc3)nn2c1=O [drawing 216],4.30
9,CS(=O)(=O)Nc1nc2c(=O)c(C(=O)O)cn(Cc3ccccc3-c3ccccc3)c2s1,5.09
10,COc1ccc(CNc2nc3c(=O)c(C(=O)O)cn(Cc4ccc(Cl)cc4-c4ccccc4)c3s2)cc1,5.42
11,O=C(O)c1cn(C(c2ccccc2)c2ccccc2)c2sc(O)nc2c1=O,6.11
12,O=CNc1nc2c(=O)c(C(=O)O)cn(Cc3ccccc3-c3ccccc3)c2s1,5.33
13,O=C(O)c1cn(Cc2ccccc2-c2ccccc2)c2sc(N3CCOCC3)nc2c1=O,6.11

# Tested on: not given
# Experiment: not given
# Settings: not given
row,SMILES,melting point
1,CCOC(=O)c1c[nH]c2nc(Nc3ccc(NC(C)=O)cc3)nn2c1=O,> 330 °C
2,CCOC(=O)c1cn(Cc2ccccc2)c2cc(C3CC3)nn2c1=O,160 to 165 °C
3,CCOC(=O)c1c[nH]c2cc(C(=O)NCc3ccccc3)nn2c1=O,290 to 292 °C
4,CCOC(=O)c1cn(CCc2ccc(O)cc2)c2cc(C3CC3)nn2c1=O,95 to 100 °C
5,CCOC(=O)c1cn(CCc2cccc(Cl)c2)c2cc(C3CC3)nn2c1=O,160 to 165 °C
6,CCOC(=O)c1cn(Cc2ccccc2)c2cc(C(C)C)nn2c1=O,135 to 140 °C
7,CC(C)c1cc2n(CCc3ccccc3)cc(C(=O)O)c(=O)n2n1,220 to 225 °C
8,CC(C)c1cc2n(Cc3ccccc3)cc(C(=O)O)c(=O)n2n1,180 to 185 °C
9,CCOC(=O)Cc1c[nH]c2cc(C(F)(F)F)nn2c1=O,290 to 293 °C
10,O=C(O)c1c[nH]c2nc(NCc3cccc4ccccc34)nn2c1=O,245 to 250 °C
11,CCOC(=O)c1cn(CCc2ccc(OC)cc2)c2cc(C3CC3)nn2c1=O,160 to 165 °C
12,O=C(O)Cc1c[nH]c2nc(Nc3ccccc3)nn2c1=O,279 to 281 °C
13,CCOC(=O)c1c[nH]c2cc(C(=O)NCCc3ccc(Cl)cc3)nn2c1=O,> 300 °C
14,O=C(O)c1cn(CCc2cccc(Cl)c2)c2cc(C3CC3)nn2c1=O,230 to 235 °C
15,CCOC(=O)c1c[nH]c2nc(NCc3cccc4ccccc34)nn2c1=O,273 to 275 °C
16,O=C(NCCc1ccc(Cl)cc1)c1cc2[nH]cc(C(=O)O)c(=O)n2n1,> 300 °C
17,O=C(O)c1cn(CCc2ccccc2)c2cc(C3CCCC3)nn2c1=O,198 to 200 °C
18,CCOC(=O)c1cn(CCc2ccc(Cl)cc2)c2cc(C3CC3)nn2c1=O,190 to 195 °C
19,O=C(O)Cc1c[nH]c2cc(C(F)(F)F)nn2c1=O,320 to 324 °C
20,COc1ccc(CCn2cc(C(=O)O)c(=O)n3nc(C4CC4)cc23)cc1,145 to 150 °C
21,CCOC(=O)Cc1c[nH]c2cc(-c3ccccc3)nn2c1=O,245 to 250 °C
22,CCOC(=O)c1cn(CCc2ccccc2)c2cc(C3CC3)nn2c1=O,155 to 160 °C
23,O=C(O)c1cn(CCc2cccc(C(F)(F)F)c2)c2cc(C3CC3)nn2c1=O,200 to 205 °C
24,CCOC(=O)c1cn(CCc2cccc(F)c2)c2cc(C3CC3)nn2c1=O,160 to 165 °C
25,CCOC(=O)c1cn(CCc2ccccc2)c2cc(C(C)C)nn2c1=O,130 to 135 °C

row,SMILES,melting point
1,CCOC(=O)c1c[nH]c2nc(Nc3ccc(C)c(Cl)c3)nn2c1=O,> 340 °C
2,O=C(O)Cc1c[nH]c2cc(C3CC3)nn2c1=O,> 300 °C
3,O=C(O)c1c[nH]c2cc(C(F)(F)F)nn2c1=O,> 340 °C
4,O=C(O)c1cn(CCc2ccc(Cl)cc2)c2cc(C3CC3)nn2c1=O,220 to 225 °C
5,O=C(O)c1cn(Cc2ccccc2)c2cc(C3CCCC3)nn2c1=O,213 to 215 °C
6,O=C(O)c1cn(CCc2ccccc2)c2cc(C3CC3)nn2c1=O,185 to 190 °C
7,O=C(O)c1cn(CCc2ccc(O)cc2)c2cc(C3CC3)nn2c1=O,265 to 270 °C
8,O=C(O)c1c[nH]c2nc(NCc3ccccc3)nn2c1=O,240 to 245 °C
9,O=C(O)c1cn(CCCc2ccccc2)c2cc(C3CC3)nn2c1=O,95 to 100 °C
10,CCOC(=O)Cc1c[nH]c2nc(Nc3ccccc3)nn2c1=O,255 to 257 °C
11,CCOC(=O)c1c[nH]c2c(C#N)c(CCCNC)nn2c1=O,285 to 287 °C
12,CCOC(=O)Cc1cn(C)c2cc(C3CC3)nn2c1=O,147 to 150 °C
13,CCOC(=O)c1cn(CCc2ccccc2)c2cc(C3CCCC3)nn2c1=O,162 to 164 °C
14,CCOC(=O)Cc1c[nH]c2nc(Nc3ccc(OC(C)C)cc3)nn2c1=O,235 to 240 °C
15,CCOC(=O)c1c[nH]c2cc(C(=O)NC3CCN(Cc4ccccc4)CC3)nn2c1=O,264 to 266 °C
16,CCOC(=O)c1cn(CCc2cccc(C(F)(F)F)c2)c2cc(C3CC3)nn2c1=O,140 to 145 °C
17,O=C(O)c1c[nH]c2cc(C3CC3)nn2c1=O,275 to 278 °C
18,CCOC(=O)Cc1c[nH]c2cc(C3CC3)nn2c1=O,280 to 283 °C
19,O=C(O)c1cn(Cc2ccccc2)c2cc(C3CC3)nn2c1=O,210 to 215 °C
20,O=C(O)c1cn(CCc2cccc(F)c2)c2cc(C3CC3)nn2c1=O,220 to 225 °C
21,O=C(O)c1cn(CCc2ccc(C(F)(F)F)cc2)c2cc(C3CC3)nn2c1=O,225 to 230 °C
22,CCOC(=O)c1cn(CCCc2ccccc2)c2cc(C3CC3)nn2c1=O,150 to 155 °C
23,CCOC(=O)c1cn(Cc2ccccc2)c2cc(C3CCCC3)nn2c1=O,148 to 150 °C
24,CCOC(=O)c1c[nH]c2nc(NCc3ccccc3)nn2c1=O,275 to 278 °C
25,CCOC(=O)c1c[nH]c2nc(NCc3ccc(Br)cc3)nn2c1=O,286 to 287 °C

# Tested on: influenza A virus (IAV) A/Aichi/2/68 (H3N2)
# Experiment: Cytopathic effect (CPE) assay
# Assay type: cell-based
# Settings: @ 50 μM, MDCK cells, 48 hrs, read-out: CPE % reduction
row,SMILES,inhibition at 50 µM
1,COc1ccc(S(=O)(=O)Nc2nc3c(=O)c(C(=O)O)cn(Cc4ccc(Cl)cc4-c4ccccc4)c3s2)cc1,67%
2,O=C(O)c1cn(Cc2ccccc2-c2ccccc2)c2nc(NC3CCCC3)sc2c1=O,70%
3,O=C(O)c1cn(Cc2ccccc2-c2ccccc2)c2sc(N3CCCCC3)nc2c1=O,83%
4,Nc1cc2n(C(=O)C3(c4ccccc4)CCCC3)cc(C(=O)O)c(=O)n2n1 [drawing 237],18%
5,CNC(=O)c1cn(Cc2ccccc2-c2ccccc2)c2sc(NCc3ccccc3)nc2c1=O,41%
6,O=C(O)c1cn(Cc2ccccc2-c2ccccc2)c2nc(NCc3ccccc3)sc2c1=O,68%
7,Cc1[nH]c2ncnn2c(=O)c1CC(=O)O,28%
8,CCOC(=O)c1cn(Cc2ccccc2-c2ccccc2)c2sc(SC)nc2c1=O,35%
9,O=C(O)c1cn(Cc2ccccc2-c2ccc(Cl)cc2)c2sc(O)nc2c1=O,63%

# Same assay, conditions: MDCK cells, 48 hrs
row,SMILES,pIC50
1,N#Cc1ccc(S(=O)(=O)Nc2nc3c(=O)c(C(=O)O)cn(Cc4ccccc4-c4ccccc4)c3s2)cc1,4.74

# Tested on: MDCK cells
# Experiment: Cytotoxicity in uninfected treated cells (CellTiter-Glo) within the CPE assay
# Assay type: cell-based, canine
# Settings: at 50 μM
# Protocol: After removal of the culture medium and one washing step with PBS, virus and compound were added together to the cells. In the wells used for cytotoxicity determination (i.e. in the absence of viral infection), no virus suspension was added. Instead, infection medium was added. Each treatment was conducted in two replicates. After incubation at 37° C., 5% CO2 for 48 hrs, each well was observed microscopically for apparent cytotoxicity, precipitate formation, or other notable abnormalities. Then, cell viability was determined using CellTiter-Glo luminescent cell viability assay (Promega). The supernatant was removed carefully and 65 μl of the reconstituted reagent were added to each well and incubated with gentle shaking for 15 min at room temperature. Then, 60 μl of the solution was transferred to an opaque plate and luminescence (RLU) was measured using Synergy HT plate reader (Biotek).
# Relative cell viability values of uninfected-treated versus uninfected-untreated cells were used to evaluate cytotoxicity of the compounds. Substances with a relative viability below 80% at the tested concentration were regarded as cytotoxic and retested at lower concentrations.
row,SMILES,Cytotoxicity (relative viability below 80% regarded as cytotoxic)
1,CSC1=NC2C(=O)C(C(=O)O)=CN(Cc3ccccc3-c3ccccc3)C2S1 (stereo not drawn),Toxic
2,O=C(O)c1cn(Cc2ccccc2-c2ccccc2)c2sc(NC3CCCC3)nc2c1=O,toxic
